The values that follow come from patent US20240109892A1, “POLY(ADP-RIBOSE) GLYCOHYDROLASE (PARG) INHIBITORS AGAINST COVID MACRODOMAIN AND METHODS OF USING THE SAME” (BOARD OF REGENTS, THE UNIVERSITY OF TEXAS SYSTEM, priority 2021, published 2024).

Data set [1] concerns the target T1, CoV-2 Mac1 (Severe acute respiratory syndrome coronavirus 2, UniProt P0DTC1). The experiment in a line: biochemical. It counts as binding.
The target of data set [2] is T1, CoV-2 Mac1. In words: Microscale thermophoresis (MST) binding affinity measurements with CoV-2 Mac1. The settings on record: preliminary measurements.
For data set [3] the following is noted: pH 7.5; cited from earlier work.

Where two headings read alike, the source gives them in different places.

Turning to `Nc1ncnc2c1ncn2[C@@H]1O[C@H](COP(=O)(O)OP(=O)(O)OC[C@H]2OC(O)[C@H](O)[C@@H]2O)[C@@H](O)[C@H]1O` (stereo partly shown) [ADPr, ADP-ribose], at CoV-2 Mac1 [1] (ITC, 25° C.), the ΔG is -6.74 kcal/mol, the ΔH was -9.18 kcal/mol and the “−TΔS” value is on record as 2.43 kcal/mol. Further, the Kd on CoV-2 Mac1 [1] (ITC, 25° C., 25 mM HEPES pH 7.5, 150 mM NaCl, read-out: Kd) came out at 11.6 µM. Moreover, on CoV-2 Mac1 [1] (read-out: dissociation constant Kd), the equilibrium dissociation constant (Kd) was in the range of 10 to 12 µM.
In the case of `Cn1c(=O)c2[nH]c(SCCCNC(=S)NCCN3CCOCC3)nc2n(C)c1=O` [PARG-329], the “binding to the Mac1 domain by ITC” value on CoV-2 Mac1 [1] is reported as “fails to detect a robust interaction”. Also, at CoV-2 Mac1 [2], the “binding to the Mac1 domain by MST” value is recorded as “micromolar affinity”.
With `Cn1c(=O)c2[nH]c(SCCC(=O)NS(=O)(=O)CCN3CCOCC3)nc2n(C)c1=O` [PARG-345, 3-((1,3-dimethyl-2,6-dioxo-2,3,6,7-tetrahydro-1H-purin-8-yl)thio)-N-((2-morpholinoethyl)sulfonyl)propanamide], the “binding to the Mac1 domain by ITC” value on CoV-2 Mac1 [1] was “fails to detect a robust interaction”. Moreover, the “binding to the Mac1 domain by MST” value at CoV-2 Mac1 [2] was “micromolar affinity”. Besides, the “pKa of morpholine nitrogen atom” value in data set [3] is on record as roughly 8.3.

As a reminder, the Kd is the concentration at which binding is half-saturated.
